10 molecules from ChEMBL document CHEMBL1157583, “Novel irreversible epidermal growth factor receptor inhibitors by chemical modulation of the cysteine-trap portion” (J Med Chem, 2010) can be followed below.

The target in series [1] is T1, Epidermal growth factor receptor (Homo sapiens, UniProt P00533). The following applies: A-431, at 1 µM.
Description: Inhibition of EGFR autophosphorylation in human A431 cells at 1 uM after 8 hrs by Western blot
Series [2] relates to A-431. Nature of the series: Antiproliferative activity against human A431 cells assessed as viable cells at 10 uM. The format is functional. The following applies: read-out: Activity.
In series [3] the target is T1, Epidermal growth factor receptor. The following applies: A-431, at 1 µM. This is another data set of the same source.
Description: Inhibition of EGFR autophosphorylation in human A431 cells at 1 uM after 1 hr by Western blot
The target is the same in series [4]. Nature of the series: Inhibition of human recombinant EGFR expressed in insect cells by time-resolved fluorimetry. The format is cell-based.
The subject of series [5] is NCI-H1975. Nature of the series: Induction of apoptosis in human NCI-H1975 cells assessed as activation of caspase-3 at 5 uM after 2 days by Western blot. The class given is functional, cell-based.
The test system of series [6] is NCI-H1975. Nature of the series: Antiproliferative activity against human NCI-H1975 cells after 72 hrs by MTT assay. The format is functional, cell-based. The following applies: NCI-H1975, 72 h. Background: Tetrazolium assays rely on reduction of a dye to a coloured formazan, in cell work by metabolically active cells.
The target in series [7] is T1, Epidermal growth factor receptor. Nature of the series: Inhibition of EGFR autophosphorylation in human A431 cells after 8 hrs by Western blot. The format is cell-based, A-431.
Series [8] concerns SW-620. Nature of the series: Cytotoxicity against human SW620 cells after 72 hrs by MTT assay. The class given is ADME, cell-based. The following applies: SW-620, 72 h.
Series [9] relates to NCI-H1975. Nature of the series: Cytotoxicity against human NCI-H1975 cells assessed as cell death at 5 uM after 72 hrs by propidium iodide/Hoechst staining based fluorescence microscopy. The format is functional.
For series [10], the system named is SW-620. Nature of the series: Cytotoxicity against human SW620 cells at 10 uM after 72 hrs by MTT assay. The format is cell-based. The following applies: sw-620, 72 h.
Series [11] deals with T1, Epidermal growth factor receptor. Nature of the series: Inhibition of EGFR autophosphorylation in human A431 cells after 1 hr by Western blot. The format is cell-based, A-431.
For series [12], the target named is Receptor tyrosine-protein kinase erbB-2 (Homo sapiens) (UniProt P04626). Nature of the series: Inhibition of ERBB2 autophosphorylation in human NCI-H1975 cells by Western blot. The class given is cell-based.
Chain of Receptor tyrosine-protein kinase erbB-2 (Homo sapiens) (P04626 whole entry): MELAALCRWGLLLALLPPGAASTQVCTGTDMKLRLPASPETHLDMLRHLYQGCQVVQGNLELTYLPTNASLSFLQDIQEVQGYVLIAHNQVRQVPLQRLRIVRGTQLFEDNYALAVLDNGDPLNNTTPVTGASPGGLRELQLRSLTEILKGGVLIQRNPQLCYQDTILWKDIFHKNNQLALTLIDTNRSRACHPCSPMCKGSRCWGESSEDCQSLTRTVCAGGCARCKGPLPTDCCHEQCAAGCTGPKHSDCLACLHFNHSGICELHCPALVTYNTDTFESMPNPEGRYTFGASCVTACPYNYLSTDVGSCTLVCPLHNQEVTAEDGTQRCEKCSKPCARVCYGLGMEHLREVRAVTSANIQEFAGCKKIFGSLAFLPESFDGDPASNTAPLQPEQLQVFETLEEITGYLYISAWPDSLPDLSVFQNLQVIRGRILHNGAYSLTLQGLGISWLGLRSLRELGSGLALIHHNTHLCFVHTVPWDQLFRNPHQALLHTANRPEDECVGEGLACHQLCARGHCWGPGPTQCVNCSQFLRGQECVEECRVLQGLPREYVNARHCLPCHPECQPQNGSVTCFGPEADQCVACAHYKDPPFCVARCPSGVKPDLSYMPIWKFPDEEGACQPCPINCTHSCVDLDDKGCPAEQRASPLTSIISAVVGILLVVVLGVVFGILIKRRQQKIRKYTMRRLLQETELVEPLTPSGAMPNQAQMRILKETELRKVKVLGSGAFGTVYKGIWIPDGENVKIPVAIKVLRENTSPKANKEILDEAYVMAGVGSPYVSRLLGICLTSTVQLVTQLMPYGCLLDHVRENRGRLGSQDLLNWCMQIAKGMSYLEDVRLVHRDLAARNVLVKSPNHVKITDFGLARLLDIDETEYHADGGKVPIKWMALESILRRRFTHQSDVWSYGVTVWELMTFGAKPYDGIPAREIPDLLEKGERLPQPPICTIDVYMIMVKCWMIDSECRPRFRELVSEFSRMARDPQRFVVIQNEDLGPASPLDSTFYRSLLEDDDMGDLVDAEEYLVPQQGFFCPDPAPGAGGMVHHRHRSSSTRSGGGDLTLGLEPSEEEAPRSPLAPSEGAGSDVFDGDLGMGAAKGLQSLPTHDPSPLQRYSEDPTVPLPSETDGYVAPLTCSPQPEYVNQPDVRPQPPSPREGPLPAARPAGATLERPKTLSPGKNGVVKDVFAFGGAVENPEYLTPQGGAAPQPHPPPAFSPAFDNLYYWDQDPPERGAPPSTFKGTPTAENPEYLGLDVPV

Broadly, the inhibition is the share of the control response that was lost under treatment. The term IC50 denotes the midpoint of a concentration-inhibition curve.

Activity calls are given as the source filed them. No cut-off for these calls is given here.

T1 sequence (P00533 whole entry): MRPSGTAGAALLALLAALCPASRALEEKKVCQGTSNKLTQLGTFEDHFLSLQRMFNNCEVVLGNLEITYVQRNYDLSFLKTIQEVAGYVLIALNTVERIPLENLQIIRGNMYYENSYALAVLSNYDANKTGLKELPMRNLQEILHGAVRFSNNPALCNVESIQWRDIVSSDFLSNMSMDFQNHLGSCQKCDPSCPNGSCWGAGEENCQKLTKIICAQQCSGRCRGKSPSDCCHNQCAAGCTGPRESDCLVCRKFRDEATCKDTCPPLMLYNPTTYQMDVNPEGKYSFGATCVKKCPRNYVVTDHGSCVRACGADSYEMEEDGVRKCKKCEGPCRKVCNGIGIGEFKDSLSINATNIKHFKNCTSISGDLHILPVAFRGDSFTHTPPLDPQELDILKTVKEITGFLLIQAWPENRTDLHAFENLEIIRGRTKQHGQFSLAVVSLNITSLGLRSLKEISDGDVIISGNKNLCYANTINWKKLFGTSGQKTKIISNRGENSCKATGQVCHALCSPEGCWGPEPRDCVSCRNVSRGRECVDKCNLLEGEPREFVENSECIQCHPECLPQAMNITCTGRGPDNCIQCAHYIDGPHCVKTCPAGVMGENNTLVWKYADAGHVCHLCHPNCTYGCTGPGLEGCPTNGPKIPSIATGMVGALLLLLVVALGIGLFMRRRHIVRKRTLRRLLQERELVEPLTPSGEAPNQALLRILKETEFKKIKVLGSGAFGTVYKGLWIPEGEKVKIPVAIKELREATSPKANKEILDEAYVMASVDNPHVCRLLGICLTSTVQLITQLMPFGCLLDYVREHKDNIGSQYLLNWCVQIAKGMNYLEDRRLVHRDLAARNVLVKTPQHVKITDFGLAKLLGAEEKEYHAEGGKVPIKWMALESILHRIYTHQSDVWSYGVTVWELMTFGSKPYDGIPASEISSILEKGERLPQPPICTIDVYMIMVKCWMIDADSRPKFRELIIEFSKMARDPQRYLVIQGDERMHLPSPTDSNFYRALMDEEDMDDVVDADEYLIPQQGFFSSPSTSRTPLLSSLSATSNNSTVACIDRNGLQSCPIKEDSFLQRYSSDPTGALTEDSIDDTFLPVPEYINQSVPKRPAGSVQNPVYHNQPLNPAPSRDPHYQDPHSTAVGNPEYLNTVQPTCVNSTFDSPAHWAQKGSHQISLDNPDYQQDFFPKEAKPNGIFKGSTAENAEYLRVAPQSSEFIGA

Take `CCOC(=O)[C@@H]1O[C@H]1C(=O)Nc1ccc2ccccc2c1`: the inhibition in series [1] and in series [3] was 0% each time. For the same molecule, in series [2], the viability at 10 µM was less than 10%.

In the case of `CC(C)c1nsc(C(=O)Nc2ccc3ncnc(Nc4cccc(Br)c4)c3c2)n1`, the inhibition in [1] came out at 66.9%; in [3] it was 82.3%. For the same molecule, the IC50 in series [4] came out at 129 nM.

Consider `COc1cc2ncnc(Nc3ccc(F)c(Cl)c3)c2cc1OCCCN1CCOCC1`, for which the result in series [5] was Active.

For `O=C(COc1ccccc1)Nc1ccc2ccccc2c1`, the inhibition in [1] and in series [3] was 0% in each case. In addition, the viability at 10 µM in [2] is less than 10%.

For the molecule `O=C(Cn1sc2ccccc2c1=O)Nc1ccc2ncnc(Nc3cccc(Br)c3)c2c1`, the results for the inhibition in series [1] and in series [3] were 30.7% and 69%, respectively. Besides, the IC50 in [4] was determined as 0.85 nM.

For the molecule `O=C(Nc1ccc2ncnc(Nc3cccc(Br)c3)c2c1)[C@@H]1O[C@H]1CN1CCCCC1`, the inhibition in series [1] is 96.3%; in [3] it was 99.4%; in series [12], “Dose-dependent effect”. For the same molecule, the IC50 is 1.24 nM in series [4]; 1720 nM in series [6]; 44 nM in series [7]; greater than 10000 nM in series [8]; 7 nM in series [11]. Further, the Activity in series [9] is 25%; in series [10], less than 50%.

Regarding `O=C(CNC(=O)Oc1ccccc1)Nc1ccc2ncnc(Nc3cccc(Br)c3)c2c1`, the inhibition is 79.9% in [1] and 95.2% in series [3]. In addition, the IC50 in series [4] is 0.37 nM.

Consider `Nc1ccc2ncnc(Nc3cccc(Br)c3)c2c1`, for which the figures for the inhibition in series [1] and in [3] were 0% and 98.5%, respectively.

`C=CC(=O)Nc1ccc2ncnc(Nc3cccc(Br)c3)c2c1`: half-maximal inhibition in [8] (IC50) required 8230 nM.

As for `O=C(COc1ccc(F)cc1)Nc1ccc2ncnc(Nc3cccc(Br)c3)c2c1`, the inhibition in [1] stood at 77.6%; in series [3], 97.4%. Further, the IC50 in series [4] is 8.43 nM; in series [6], 7820 nM; in series [7], 291 nM; in series [11] it was 76 nM.
